Data on 16 molecules can be found in patent US12371428B2 (Exelixis, Inc., priority 2019, dated 2025).

Assay [1] deals with Human Met (residues R974-S1390 with A1209G and V1290L) (Homo sapiens, UniProt P08581). Put plainly: Human Met kinase assay, 33P-phosphoryl transfer radiometric (Example D-1, KinaseProfiler). Type of assay: biochemical. The following applies: protocol of Example D-1 (compounds 21-27, 41-47, 99, 104); read-out: c-Met IC50. How it is done:
(§1) Kinase activity and compound inhibition were investigated using the ^33P-Phosphoryl transfer radiometric kinase assay, performed using the KinaseProfiler™ service of Eurofins Pharma Discovery Services UK Limited. Dose-response experiments were performed using nine compound concentrations in a 96-well microtiter plate. For each assay, all compounds were prepared to a 50× final assay concentration (50 μM) in 100% DMSO, then diluted in a half-log series, with the final top concentration at 1 μM. This working stock of the compound was added to the assay well as the first component in the reaction, followed by the remaining components as detailed in the following assay protocols below. The positive control wells (100% kinase activity) contain all components of the reaction including 2% DMSO (control for solvent effects), except the compound of interest. Blank wells contain all components of the reaction, with the reference inhibitor, staurosporine. This reference compound was used to abolish kinase activity and generated the 0% kinase activity base-line. IC50 values were calculated by nonlinear regression analysis using the sigmoidal dose-response (variable slope) curve fit on XLFit version 5.3 (ID Business Solutions).
Example D-1: Human Met (residues R974-S1390 with A1209G and V1290L, 3.4 nM) was incubated with 8 mM MOPS pH 7.0, 0.2 mM EDTA, 250 µM […] (SEQ ID NO:3), 1 mM sodium orthovanadate, 5 mM […], 10 mM magnesium acetate, and 10 μM [γ-^33P-ATP]. The reaction was initiated by the addition of the Mg/ATP mix. After incubation for 40 minutes at room temperature, the reaction was stopped by the addition of phosphoric acid to a concentration of 0.5%. A reaction aliquot of 10 μL was then spotted onto a P30 filtermat and washed four times for 4 minutes in 0.425% phosphoric acid and once in methanol prior to drying and scintillation counting. Incorporated ^33P was measured using the Wallac Microbeta scintillation counter (Perkin Elmer).

For assay [2], the target named is Met (phospho-Met, HGF-stimulated PC-3 prostate cancer cells) (Homo sapiens (Human), UniProt P08581). Put plainly: Met autophosphorylation ELISA in PC-3 cells (Example F). Type of assay: cell-based. The note with it: cellular activity; Met autophosphorylation ELISA in PC-3 cells; read-out: c-Met IC50. The method, boiled down: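 Sandwich ELISA for phospho-Met (panTyr) in PC-3 lysates. Cells starved 3 h serum-free, compound 1 h (8-pt curve, 0.3% DMSO), HGF 100 ng/mL 10 min. 100% = HGF + DMSO; 0% = HGF + reference inhibitor. IC50 by 4-parameter fit.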
Background: ELISA stands for enzyme-linked immunosorbent assay.

The target in assay [3] is Human KDR (residues K790-V1356) (Homo sapiens (Human), UniProt P35968). Put plainly: Human KDR kinase assay, 33P-phosphoryl transfer radiometric (Example B-1, KinaseProfiler). In kind it is biochemical. The note with it: protocol of Example B-1 (compounds 21-27, 41-47, 99, 104). The protocol:
as §1
Example B-1: Human KDR (residues K790-V1356, 55 nM) was incubated with 8 mM MOPS pH 7.0, 0.2 mM EDTA, 0.33 mg/mL myelin basic protein, 10 mM magnesium acetate, and 10 μM [γ-^33P-ATP]. The reaction was initiated by the addition of the Mg/ATP mix. After incubation for 40 minutes at room temperature, the reaction was stopped by the addition of phosphoric acid to a concentration of 0.5%. A reaction aliquot of 10 μL was then spotted onto a P30 filtermat and washed four times for 4 minutes in 0.425% phosphoric acid and once in methanol prior to drying and scintillation counting. Incorporated ^33P was measured using the Wallac Microbeta scintillation counter (Perkin Elmer).

Chain of Human KDR (residues K790-V1356) (P35968 790-1356): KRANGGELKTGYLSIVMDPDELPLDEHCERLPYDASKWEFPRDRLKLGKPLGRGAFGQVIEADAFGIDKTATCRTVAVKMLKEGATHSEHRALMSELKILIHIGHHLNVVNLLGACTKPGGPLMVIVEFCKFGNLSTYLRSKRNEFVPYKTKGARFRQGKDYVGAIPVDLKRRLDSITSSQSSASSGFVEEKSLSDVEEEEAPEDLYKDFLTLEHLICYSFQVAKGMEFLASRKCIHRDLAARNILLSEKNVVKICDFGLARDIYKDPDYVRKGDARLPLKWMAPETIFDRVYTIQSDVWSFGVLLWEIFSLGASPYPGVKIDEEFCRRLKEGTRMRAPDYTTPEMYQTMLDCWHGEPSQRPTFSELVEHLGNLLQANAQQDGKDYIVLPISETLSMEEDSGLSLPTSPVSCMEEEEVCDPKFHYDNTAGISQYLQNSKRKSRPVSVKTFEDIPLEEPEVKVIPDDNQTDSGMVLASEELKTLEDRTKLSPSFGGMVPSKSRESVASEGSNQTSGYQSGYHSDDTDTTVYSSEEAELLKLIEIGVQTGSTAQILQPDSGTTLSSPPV
Chain of Human Met (residues R974-S1390 with A1209G and V1290L) (P08581 25-1390 limits assumed, stated change not applied): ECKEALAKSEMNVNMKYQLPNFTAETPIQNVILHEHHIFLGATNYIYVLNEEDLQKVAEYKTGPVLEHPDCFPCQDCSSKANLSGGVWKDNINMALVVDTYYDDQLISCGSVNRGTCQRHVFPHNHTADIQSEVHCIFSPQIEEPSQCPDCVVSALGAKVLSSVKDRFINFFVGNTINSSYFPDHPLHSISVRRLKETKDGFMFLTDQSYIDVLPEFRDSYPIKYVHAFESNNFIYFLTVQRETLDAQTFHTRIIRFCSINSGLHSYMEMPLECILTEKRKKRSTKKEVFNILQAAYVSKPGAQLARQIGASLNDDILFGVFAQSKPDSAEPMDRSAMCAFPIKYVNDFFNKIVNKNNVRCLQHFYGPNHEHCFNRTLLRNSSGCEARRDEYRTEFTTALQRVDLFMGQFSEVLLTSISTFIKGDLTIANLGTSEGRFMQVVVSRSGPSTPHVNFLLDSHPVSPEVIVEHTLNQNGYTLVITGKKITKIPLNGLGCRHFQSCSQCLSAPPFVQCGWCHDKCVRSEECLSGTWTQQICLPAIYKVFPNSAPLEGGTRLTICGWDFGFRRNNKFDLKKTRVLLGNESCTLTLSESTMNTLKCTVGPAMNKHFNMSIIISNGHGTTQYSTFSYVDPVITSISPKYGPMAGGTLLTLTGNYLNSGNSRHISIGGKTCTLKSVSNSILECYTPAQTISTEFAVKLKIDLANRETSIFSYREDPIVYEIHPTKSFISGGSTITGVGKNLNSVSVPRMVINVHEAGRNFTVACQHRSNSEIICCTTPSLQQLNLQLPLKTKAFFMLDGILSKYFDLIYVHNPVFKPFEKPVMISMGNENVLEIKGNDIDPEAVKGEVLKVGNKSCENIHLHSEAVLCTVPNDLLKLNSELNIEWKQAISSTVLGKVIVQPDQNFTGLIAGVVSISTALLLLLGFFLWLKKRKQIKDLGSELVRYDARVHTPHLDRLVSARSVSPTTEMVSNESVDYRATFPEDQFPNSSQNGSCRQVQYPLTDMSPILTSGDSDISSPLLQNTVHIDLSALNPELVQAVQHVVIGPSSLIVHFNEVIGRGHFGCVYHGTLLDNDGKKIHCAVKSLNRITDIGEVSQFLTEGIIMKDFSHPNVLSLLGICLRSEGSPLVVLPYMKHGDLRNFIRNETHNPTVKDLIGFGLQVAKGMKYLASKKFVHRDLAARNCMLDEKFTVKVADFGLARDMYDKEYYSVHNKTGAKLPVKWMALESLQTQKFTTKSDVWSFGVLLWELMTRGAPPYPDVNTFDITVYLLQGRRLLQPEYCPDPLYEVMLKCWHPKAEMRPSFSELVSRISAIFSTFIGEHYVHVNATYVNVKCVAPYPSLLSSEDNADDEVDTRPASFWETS
Chain of Met (phospho-Met, HGF-stimulated PC-3 prostate cancer cells) (P08581 25-1390): as the sequence (P08581 25-1390 limits assumed, stated change not applied) above

For the molecule `COc1cc2nccc(Oc3ccc(NC(=O)c4cn(C5CCCC5)c(C)c(-c5ccc(F)c(Cl)c5)c4=O)cc3F)c2nc1OC` [Compound 27, 5-(3-Chloro-4-fluorophenyl)-1-cyclopentyl-N-[4-[(6,7-dimethoxy-1,5-naphthyridin-4-yl)oxy]-3-fluorophenyl]-6-methyl-4-oxopyridine-3-carboxamide], the IC50 in assay [1], in assay [2] and in assay [3] was less than 100 nM each time.
For `COc1cc2nccc(Oc3ccc(NC(=O)c4cn(C5CCCC5)c(C)c(-c5ccc(F)cc5)c4=O)cc3F)c2nc1OC` [Compound 26], the IC50 in assay [1], in assay [2] and in assay [3] was less than 100 nM in each case.
`COc1cc2nccc(Oc3ccc(NC(=O)c4cn(C(C)C)c(C)c(-c5ccc(F)cc5)c4=O)cc3F)c2cc1OC` [Compound 22, N-[4-(6,7-Dimethoxyquinolin-4-yl)oxy-3-fluorophenyl]-5-(4-fluorophenyl)-6-methyl-4-oxo-1-propan-2-ylpyridine-3-carboxamide]: the IC50 in assay [1], in assay [2] and in assay [3] was less than 100 nM in each case.
As to `COc1cc2nccc(Oc3ccc(NC(=O)c4cn(C(C)C)cc(-c5ccc(F)cc5)c4=O)cc3F)c2nc1OC` [Compound 44, N-[4-[(6,7-Dimethoxy-1,5-naphthyridin-4-yl)oxy]-3-fluorophenyl]-5-(4-fluorophenyl)-4-oxo-1-propan-2-ylpyridine-3-carboxamide], the concentration for half-maximal inhibition (IC50) in assay [1], in assay [2] and in assay [3] was less than 100 nM in each case.
As to `COc1cc2nccc(Oc3ccc(NC(=O)c4c[nH]c(=S)n(-c5ccc(F)cc5)c4=O)cc3F)c2nc1OC` [Compound 104, N-[4-[(6,7-Dimethoxy-1,5-naphthyridin-4-yl)oxy]-3-fluorophenyl]-3-(4-fluorophenyl)-4-oxo-2-sulfanylidene-1H-pyrimidine-5-carboxamide], the IC50 (usually the midpoint of a concentration-inhibition curve) in assay [1] is more than 300 nM; in assay [2], less than 100 nM; in assay [3] it was more than 300 nM.
For the molecule `CNc1ncc(C(=O)Nc2ccc(Oc3ccnc4cc(OC)c(OC)nc34)c(F)c2)c(=O)n1-c1ccc(F)cc1` [Compound 99, N-[4-[(6,7-Dimethoxy-1,5-naphthyridin-4-yl)oxy]-3-fluorophenyl]-1-(4-fluorophenyl)-2-(methylamino)-6-oxopyrimidine-5-carboxamide], the IC50 in assay [1], in assay [2] and in assay [3] was less than 100 nM each time.
On to `COc1cc2nccc(Oc3ccc(NC(=O)c4cncc(-c5ccc(F)cc5)c4O)cc3F)c2nc1OC` [Compound 42, N-[4-[(6,7-Dimethoxy-1,5-naphthyridin-4-yl)oxy]-3-fluorophenyl]-5-(4-fluorophenyl)-4-hydroxypyridine-3-carboxamide], for which the IC50 in assay [1], in assay [2] and in assay [3] was less than 100 nM each time.
As to `COc1cc2nccc(Oc3ccc(NC(=O)c4cn(C(C)C)c(C)c(-c5ccc(F)cc5)c4=O)cc3F)c2nc1OC` [Compound 21, N-[4-[(6,7-Dimethoxy-1,5-naphthyridin-4-yl)oxy]-3-fluorophenyl]-5-(4-fluorophenyl)-6-methyl-4-oxo-1-propan-2-ylpyridine-3-carboxamide], the IC50 in assay [1], in assay [2] and in assay [3] was less than 100 nM each time.
On to `COc1cc2nccc(Oc3ccc(NC(=O)c4cn(C5CC5)cc(-c5ccc(F)cc5)c4=O)cc3F)c2nc1OC` [Compound 41, 1-Cyclopropyl-N-[4-[(6,7-dimethoxy-1,5-naphthyridin-4-yl)oxy]-3-fluorophenyl]-5-(4-fluorophenyl)-4-oxopyridine-3-carboxamide], for which the IC50 in assay [1], in assay [2] and in assay [3] was less than 100 nM in each case.
With `COc1cc2nccc(Oc3ccc(NC(=O)c4cn(C5CCCC5)cc(-c5ccc(F)cc5)c4=O)cc3F)c2nc1OC` [Compound 46, 1-Cyclopentyl-N-[4-[(6,7-dimethoxy-1,5-naphthyridin-4-yl)oxy]-3-fluorophenyl]-5-(4-fluorophenyl)-4-oxopyridine-3-carboxamide], the IC50 in assay [1], in assay [2] and in assay [3] was less than 100 nM in each case.
Consider `COc1cc2nccc(Oc3ccc(NC(=O)c4cn(C5COC5)cc(-c5ccc(F)cc5)c4=O)cc3F)c2nc1OC` [Compound 47, N-[4-[(6,7-Dimethoxy-1,5-naphthyridin-4-yl)oxy]-3-fluorophenyl]-5-(4-fluorophenyl)-1-(oxetan-3-yl)-4-oxopyridine-3-carboxamide], for which the IC50 in assay [1], in assay [2] and in assay [3] was less than 100 nM each time.
Regarding `COc1cc2nccc(Oc3ccc(NC(=O)c4cn(C)cc(-c5ccc(F)cc5)c4=O)cc3F)c2nc1OC` [Compound 45, N-[4-[(6,7-Dimethoxy-1,5-naphthyridin-4-yl)oxy]-3-fluorophenyl]-5-(4-fluorophenyl)-1-methyl-4-oxopyridine-3-carboxamide], the IC50 in assay [1], in assay [2] and in assay [3] was less than 100 nM throughout.
For `COc1cc2nccc(Oc3ccc(NC(=O)c4cn(C(C)C)c(C)c(-c5ccc(F)c(Cl)c5)c4=O)cc3F)c2nc1OC` [Compound 24, 5-(3-Chloro-4-fluorophenyl)-N-[4-[(6,7-dimethoxy-1,5-naphthyridin-4-yl)oxy]-3-fluorophenyl]-6-methyl-4-oxo-1-propan-2-ylpyridine-3-carboxamide], the concentration for half-maximal inhibition (IC50) in assay [1], in assay [2] and in assay [3] was less than 100 nM throughout.
For `COc1cc2nccc(Oc3ccc(NC(=O)c4cn(C(C)C)cc(-c5ccc(F)cc5)c4=O)cc3F)c2cc1OC` [Compound 43, N-[4-(6,7-Dimethoxyquinolin-4-yl)oxy-3-fluorophenyl]-5-(4-fluorophenyl)-4-oxo-1-propan-2-ylpyridine-3-carboxamide], the IC50 in assay [1], in assay [2] and in assay [3] was less than 100 nM throughout.
Regarding `COc1cc2nccc(Oc3ccc(NC(=O)c4cn(C(C)C)c(C)c(-c5ccc(Cl)c(Cl)c5)c4=O)cc3F)c2cc1OC` [Compound 23, 5-(3,4-Dichlorophenyl)-N-[4-(6,7-dimethoxyquinolin-4-yl)oxy-3-fluorophenyl]-6-methyl-4-oxo-1-propan-2-ylpyridine-3-carboxamide], the IC50 in assay [1] was less than 100 nM; in assay [2], 100 to 300 nM; in assay [3] it was less than 100 nM.
As to `COc1cc2nccc(Oc3ccc(NC(=O)c4cn(C(C)C)c(C)c(-c5ccc(Cl)c(Cl)c5)c4=O)cc3F)c2nc1OC` [Compound 25, 5-(3,4-Dichlorophenyl)-N-[4-[(6,7-dimethoxy-1,5-naphthyridin-4-yl)oxy]-3-fluorophenyl]-6-methyl-4-oxo-1-propan-2-ylpyridine-3-carboxamide], the IC50 in assay [1], in assay [2] and in assay [3] was less than 100 nM each time.
